# Assays:
# [1] = system: freshly isolated lymphocytes; test: Immunosuppressing activity: vitality of freshly isolated spleen lymphocytes after 2 days, flow-through cytometry (propidium iodide / 3,3'-dihexyloxacarbocyanin iodide); type: cell-based; details: Lymphocyte, 48 h; Swiss mouse spleen lymphocytes, vital cells after 2 days, flow-through cytometer
# Text: Many anti-tumor agents have not only a cytotoxic effect on tumor cells, but also on the blood cell system. This leads to a weakening of the immune defence, which can, in turn, be specifically employed to suppress the rejection reaction after an organ transplantation for example. Therefore, a use of the main compounds, optionally in combination with other compounds effective for these indications is suitable in diseases such as psoriasis or autoimmune diseases. In order to test the possibility for a therapeutic use in illnesses of this type, the substance activity was tested on freshly isolated lymphocytes as follows: […]
# The cells were plated at a density of ca. 500,000 cells/well/ml in a 12-well plate, 1 ml doubly concentrated test substance solution was pipetted per well and this was subsequently incubated in a tissue culture incubator at 37° C. and 5% CO2. […] Subsequently, 10,000 cells per each sample were measured on a flow-through cytometer and the percentage amount of vital cells in the population was determined. By means of the dose-response curves, IC50-values were calculated which were also employed in the following Tables for the characterization of the individual substances: […]
# [2] = system: various human tumor cells; test: In vitro activity of compound Nr. 54 on various human tumor cells; type: cell-based
# Method: (§1) HepG2 cells plated at a density of 20,000 cells/ml in 12-well plastic dishes. Cultivation occured in Richters IMEM-ZO nutrient medium with 5% fetal calf serum (FCS) in a tissue culture incubator with a gas mixture of 5% CO2 and 95% air at a temperature of 37° C. One day after planting, the culture medium was aspirated from the cells and replaced by fresh medium which contained the respective concentrations of the test substances. For the individual concentrations and the controls without test substances, three-fold batches were done for each. Three days after the beginning of treatment, the medium was again renewed with the test compounds. After six days of substance incubation, the test was ended and the protein amount in the individual wells was determined with the sulforhodamin-B-method (according to P. Skehan et al: New Colorimetric Cytotoxicity Assay for Anticancer-Drug Screening. J. Natl. Cancer Inst. 82:1107-1112, 1990). The IC50-values (defined as that concentration in which the cell growth was inhibited by 50%) was taken from the dose-response curves and given as a comparative measurement for the activity of the test compounds.
# The compounds of formula (I) and their salts permit a therapeutic use in malignant illnesses of humans and animals through their excellent inhibition of the growth of tumor cells. The anti-neoplastic activity of the described substances can be used for prophylactic, adjunct, palliative, and curative treatment of solid tumors, leukemic illnesses and lymphomas as well as for decreasing or preventing metastasis formation in humans and animals. The therapeutic use is possible in the following illnesses for example: gynecological tumors, such as of the uterus or the vagina, ovarian carcinomas, testicle tumors, prostate carcinomas, skin cancer, kidney cancer, bladder tumors, esophagus carcinomas, stomach cancer, rectal carcinomas, pancreas carcinomas, thyroid cancer, adrenal tumors, leukemia and lymphomas, such as Hodgkin's disease, tumor illnesses of the CNS, soft-tissue sarcomas, bone sarcomas, benign and malignant mesotheliomas, but especially intestine cancer, liver cancer, breast cancer, bronchial and lung carcinomas, melanomas, acute and chronic leukemias. Thereby, benign papillomatosis tumors are also considered for therapy. The broad activity of the new compounds was tested in vitro on various human tumor cells Thereby, the following IC50 values were obtained for compound Nr.
# HepG2 cells = test: Growth inhibition of HepG2 cells, six days of substance incubation, sulforhodamin-B protein determination; type: cell-based; details: Homo sapiens, 144 h
# Method: as §1
Compound,IC50 (HepG2 cells),melting point,other results
"O=C(CCc1cccnc1)NCCCCC1CCN(C(c2ccccc2)c2ccccc2)CC1 [Substance 54, N-[4-(1-diphenylmethyl-piperidin-4-yl)-butyl]-3-(pyridin-3-yl)-propionamide]",20 nM,–,"IC50 [1]: 3 nM; IC50 ([2]; MCF7, cell line MCF-7, ER-positive mammacarcinoma): 80 nM; IC50 ([2]; cell line HT-29, colon carcenoma): 80 nM; IC50 ([2]; cell line HepG2, hepatocellular carcinoma): 20 nM; IC50 ([2]; cell line Namalwa, Burkitt's lymphoma): 50 nM; IC50 ([2]; cell line Saos-2, osteosarcoma): 20 nM; IC50 ([2]; cell line THP-1, monocytic leukemia): 30 nM"
"CCN(CCCCC1CCN(C(c2ccccc2)c2ccccc2)CC1)C(=O)CCc1cccnc1 [Substance 68, N-[4-(1-diphenylmethyl-piperidin-4-yl)-butyl]-N-ethyl-3-(pyridin-3-yl)-propionamide]",–,72 to 74 °C,–
"O=C(COc1cccnc1)NCCCCC1CCN(C(c2ccccc2)c2ccccc2)CC1 [Substance 84, N-[4-(1-diphenylmethyl-piperidin-4-yl)-butyl]-2-(pyridin-3-yloxy)-acetamide]",80 nM,103 to 105 °C,–
"O=C(CCc1cccnc1)NCCCCCC1CCN(C(c2ccccc2)c2ccccc2)CC1 [Substance 101, N-[5-(1-diphenylmethyl-piperidin-4-yl)-pentyl]-3-(pyridin-3-yl)-propionamide]",30 nM,112 to 114 °C,–
"O=C(CCc1cccnc1)NCCCCNC(=O)C1CCCN(C(c2ccccc2)c2ccccc2)C1 (stereo not drawn) [Substance 106, N-[4-(1-diphenylmethyl-piperidin-3-yl-carbonylamino)-butyl]-3-(pyridin-3-yl)-propionamide]",–,159 to 161 °C,–
"O=C(CCc1cccnc1)NCCCCC1CCN(C(=O)c2ccccc2)CC1 [Substance 162, N-[4-(1-benzoylpiperidin-4-yl)-butyl]-3-(pyridin-3-yl)-propionamide]",–,72 to 74 °C,–
